We go through 21 compounds from patent US7053070B2, “Pyrido[2,3-d]pyrimidine-2,7-diamine kinase inhibitors” (Warner-Lambert Company, priority 2000, dated 2006).

pIC50: −log10 of the molar value. Structures can show the parent of a compound that is named as a salt.

For one data set, the target named is cdk1/cyclinB (Homo sapiens, UniProt P06493). The data set is described as follows: Cyclin dependent kinase 1 assay (cdk1/cyclinB), 32P incorporation, filter plate. Conditions: retinoblastoma substrate, 12 mM ATP, 25° C., 15 minutes; read-out: Inhibition of Cdks: IC50 Cdk1/B. It counts as biochemical. As for the experimental part:
(§1) Cyclin Dependent Kinase 1 and 2 Assays (cdk1/cyclinB, cdk2/cyclinA, cdk2/cyclinE)
(§2) Enzyme assays for IC50 determinations and kinetic evaluation are performed in a 96-well filter plate (Millipore MADVN6550) in a total volume of 0.1 mL of 20 mM TRIS (tris[hydroxymethyl]aminomethane), at pH 7.4, 50 mM NaCl, 1 mM dithiothreitol, 10 mM MgCl2, […] containing 0.25 μCi of [^32P]ATP, 20 ng of enzyme (either cdk1/B, cdk2/A, or cdk2E), 1 μg retinoblastoma and appropriate dilutions of the particular invention compound. All components except the ATP are added to the wells, and the plate is placed on a plate mixer for 2 minutes. The reaction is begun by addition of [^32P]ATP, and the plate is incubated at 25° C. for 15 minutes. The reaction is terminated by addition of 0.1 mL of 20% TCA. The plate is kept at 4° C. for at least 1 hour to allow the substrate to precipitate. The wells are then washed 5 times with 0.2 mL of 10% TCA and ^32P incorporation determined with a beta plate counter (Wallac Inc., Gaithersburg, Md.).

The next data set addresses cdk2/cyclinA (Homo sapiens, UniProt P24941). The data set is described as follows: Cyclin dependent kinase 2 assay (cdk2/cyclinA), 32P incorporation, filter plate. The format is biochemical. The conditions noted are these: retinoblastoma substrate, 12 mM ATP, 25° C., 15 minutes; read-out: Inhibition of Cdks: IC50 Cdk2/A. As for the experimental part: as §1, §2
For the next data set, the target named is cdk4/cyclinD (Homo sapiens, UniProt P11802). Description: Cyclin Dependent Kinase 4 (cdk-4) Assay, 32P incorporation, filter plate. It counts as biochemical. Conditions: retinoblastoma substrate, 25 μM ATP, 25° C., 15 minutes; read-out: Inhibition of Cdks: IC50 Cdk4D. As for the experimental part: Cyclin Dependent Kinase 4 (cdk-4) Assay
cdk4/cyclinD, sequence (P11802 whole entry, species assumed): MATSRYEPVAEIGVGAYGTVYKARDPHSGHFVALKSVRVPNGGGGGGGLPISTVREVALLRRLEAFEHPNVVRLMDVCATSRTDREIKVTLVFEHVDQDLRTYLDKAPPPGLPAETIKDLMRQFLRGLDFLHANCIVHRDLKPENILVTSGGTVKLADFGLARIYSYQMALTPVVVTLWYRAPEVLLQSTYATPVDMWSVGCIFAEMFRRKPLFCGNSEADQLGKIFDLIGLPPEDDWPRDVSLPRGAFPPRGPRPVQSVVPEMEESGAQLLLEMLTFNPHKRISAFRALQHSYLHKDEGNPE
cdk4/cyclinD, sequence (P24385 whole entry partner, species assumed): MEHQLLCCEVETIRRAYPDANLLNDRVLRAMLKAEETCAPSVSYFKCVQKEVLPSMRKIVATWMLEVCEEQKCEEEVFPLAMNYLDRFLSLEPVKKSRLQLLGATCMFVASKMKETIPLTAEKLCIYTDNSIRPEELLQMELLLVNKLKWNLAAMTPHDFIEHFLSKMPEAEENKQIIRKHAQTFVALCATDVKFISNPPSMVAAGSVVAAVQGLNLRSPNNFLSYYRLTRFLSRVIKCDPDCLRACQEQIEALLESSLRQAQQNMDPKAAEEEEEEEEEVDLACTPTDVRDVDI
Enzyme assays for IC50 determinations and kinetic evaluation are performed in 96-well filter plates (Millipore MADVN6550). The total volume is 0.1 mL containing a final concentration of 20 mM TRIS (tris[hydroxymethyl]aminomethane), at pH 7.4, 50 mM NaCl, 1 mM dithiothreitol, 10 mM MgCl2, 25 μM ATP containing 0.25 μCi of [^32P]ATP, 20 ng of cdk4, 1 μg of retinoblastoma, and appropriate dilutions of a compound of the present invention. All components except the ATP are added to the wells, and the plate is placed on a plate mixer for 2 minutes. The reaction is started by adding [^32P]ATP, and the plate is incubated at 25° C. for 15 minutes. The reaction is terminated by addition of 0.1 mL of 20% trichloroacetic acid (TCA). The plate is kept at 4° C. for at least 1 hour to allow the substrate to precipitate. The wells are then washed 5 times with 0.2 mL of 10% TCA and ^32P incorporation is determined with a beta plate counter (Wallac Inc., Gaithersburg, Md.).

A further data set has as its target cdk2/cyclinE (Homo sapiens, UniProt P24941). The data set is described as follows: Cyclin dependent kinase 2 assay (cdk2/cyclinE), 32P incorporation, filter plate. It counts as biochemical. The conditions noted are these: retinoblastoma substrate, 12 mM ATP, 25° C., 15 minutes; read-out: Inhibition of Cdks: IC50 Cdk2/E. As for the experimental part: as §1, §2

cdk1/cyclinB, sequence (P06493 whole entry, species assumed): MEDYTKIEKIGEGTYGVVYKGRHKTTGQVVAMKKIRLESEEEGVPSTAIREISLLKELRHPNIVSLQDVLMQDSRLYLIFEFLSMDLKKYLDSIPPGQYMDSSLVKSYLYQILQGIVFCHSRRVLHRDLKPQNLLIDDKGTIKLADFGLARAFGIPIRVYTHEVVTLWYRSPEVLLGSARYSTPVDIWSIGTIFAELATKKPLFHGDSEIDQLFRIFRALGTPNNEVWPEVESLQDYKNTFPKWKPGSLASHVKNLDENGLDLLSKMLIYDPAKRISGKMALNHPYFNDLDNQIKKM
cdk1/cyclinB, sequence (P14635 whole entry partner, species assumed): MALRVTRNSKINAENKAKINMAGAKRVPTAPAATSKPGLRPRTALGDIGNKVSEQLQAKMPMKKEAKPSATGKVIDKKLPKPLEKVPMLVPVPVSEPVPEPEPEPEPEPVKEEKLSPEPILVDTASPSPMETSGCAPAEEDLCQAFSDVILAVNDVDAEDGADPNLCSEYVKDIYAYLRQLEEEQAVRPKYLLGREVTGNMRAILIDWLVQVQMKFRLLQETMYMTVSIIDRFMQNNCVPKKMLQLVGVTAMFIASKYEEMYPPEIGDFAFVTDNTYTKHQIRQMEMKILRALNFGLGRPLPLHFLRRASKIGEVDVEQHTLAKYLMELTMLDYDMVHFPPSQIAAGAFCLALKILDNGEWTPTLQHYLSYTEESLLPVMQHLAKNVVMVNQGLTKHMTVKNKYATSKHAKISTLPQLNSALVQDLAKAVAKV

Turning to `O=C(Nc1ccc2cnc(Nc3ccc(N4CCNCC4)cc3)nc2n1)NC1CCCC1` (as salt: salt) [Compound 51, 1-Cyclopentyl-3-[2-(4-piperazin-1-yl-phenylamino)-pyrido[2,3-d]pyrimidin-7-yl]-urea], the melting point was 210 to 213 °C (dec.).
As for `Cc1cc2cnc(Nc3ccc(N4C[C@@H](C)N[C@@H](C)C4)cc3)nc2nc1NC(=O)NC1CCCCC1` [Compound 116, 1-Cyclohexyl-3-{2-[4-(cis-3,5-dimethyl-piperazin-1-yl)-phenylamino]-6-methyl-pyrido[2,3-d]pyrimidin-7-yl}-urea], the pIC50 on cdk1/cyclinB was < 5.30; at cdk2/cyclinA it was < 5.30; on cdk4/cyclinD it was 6.50; at cdk2/cyclinE, 5.43.
On to `CC(C)(C)NC(=O)Nc1ccc2cnc(Nc3ccc(N4CCNCC4)cc3)nc2n1` (as salt: salt) [Compound 1, 1-tert-Butyl-3-[2-(4-piperazin-1-yl-phenylamino)-pyrido[2,3-d]pyrimidin-7-yl]-urea], for which the melting point is 215 °C (dec.).
As to `CCc1cc2cnc(Nc3ccc(N4C[C@@H](C)N[C@@H](C)C4)cc3)nc2nc1NC(=O)NC(C)(C)C` [Compound 121, 1-tert-Butyl-3-{2-[4-(cis-3,5-dimethyl-piperazin-1-yl)-phenylamino]-6-ethyl-pyrido[2,3-d]pyrimidin-7-yl}-urea], the pIC50 at cdk1/cyclinB is < 5.30; on cdk2/cyclinA, < 5.30; at cdk4/cyclinD, 7.04; on cdk2/cyclinE, < 5.30.
As for `C[C@@H]1CN(c2ccc(Nc3ncc4cc(Br)c(NC(=O)NC(C)(C)C)nc4n3)cc2)C[C@H](C)N1` [Compound 94, 1-{6-Bromo-2-[4-(cis-3,5-dimethyl-piperazin-1-yl)-phenylamino]-pyrido[2,3-d]pyrimidin-7-yl}-3-tert-butyl-urea], the pIC50 on cdk4/cyclinD is 7.00; at cdk2/cyclinE, < 5.30.
Turning to `CCN(C(=O)NC(C)(C)C)c1ccc2cnc(Nc3ccc(N4C[C@@H](C)N[C@@H](C)C4)cc3)nc2n1` [Compound 108, 3-tert-Butyl-1-{2-[4(cis-3,5-dimethyl-piperazin-1-yl)-phenylamino]-pyrido[2,3-d]pyrimidin-7-yl}-1-ethyl-urea], the pIC50 at cdk1/cyclinB was 5.62; on cdk2/cyclinA it was 5.69; at cdk4/cyclinD it was 7.17; on cdk2/cyclinE, 5.52.
On the same counts, the results for `O=C(Nc1ccc2cnc(Nc3ccc(N4CCNCC4)cc3)nc2n1)NC1CCCC1` [Compound 51, 1-Cyclopentyl-3-[2-(4-piperazin-1-yl-phenylamino)-pyrido[2,3-d]pyrimidin-7-yl]-urea] are 7.28, 7.62, 8.40 and 7.52.
In the same order, the values of `CCOC(=O)c1cc2cnc(Nc3ccc(N4CCNCC4)cc3)nc2nc1NC(=O)NC(C)(C)C` [Compound 113, 7-(3-tert-Butyl-ureido)-2-(4-piperazin-1-yl-phenylamino)-pyrido[2,3-d]pyrimidine-6-carboxylic acid ethyl ester] are < 5.30, < 5.30, 5.52 and < 5.30.
In the same order, the values of `CC1(C)CN(c2ccc(Nc3ncc4ccc(NC(=O)NC5CCCCC5)nc4n3)cc2)CCN1` [Compound 115, 1-Cyclohexyl-3-{2-[4-(3,3-dimethyl-piperazin-1-yl)-phenylamino]-pyrido[2,3-d]pyrimidin-7-yl}-urea] are 7.03, 7.66, 8.15 and 7.29.
As for `CC(C)NC(=O)Nc1ccc2cnc(Nc3ccc(N4CCNCC4)cc3)nc2n1` (as salt: salt) [Compound 48, 1-Isopropyl-3-[2-(4-piperazin-1-yl-phenylamino)-pyrido[2,3-d]pyrimidin-7-yl]-urea], the melting point is 190 °C (dec.).
The same measure, in the same setting: under `O=C(Nc1ccc2cnc(Nc3ccc(N4CCNCC4)cc3)nc2n1)NC1CCCCC1` (as salt: salt) [Compound 9, 1-Cyclohexyl-3-[2-(4-piperazin-1-yl-phenylamino)-pyrido[2,3-d]pyrimidin-7-yl]-urea] stands 200 °C (dec.).
In the case of `CNC(=O)Nc1nc2nc(Nc3ccc(N4CCNCC4)cc3)ncc2cc1Br` [Compound 93, 1-[6-Bromo-2-(4-piperazin-1-yl-phenylamino)-pyrido[2,3-d]pyrimidin-7-yl]-3-methyl-urea], the pIC50 at cdk1/cyclinB, on cdk2/cyclinA, at cdk4/cyclinD and at cdk2/cyclinE was < 5.30 each time.
With `C[C@@H]1CN(c2ccc(Nc3ncc4cc(Br)c(NC(=O)NC5CCCCC5)nc4n3)cc2)C[C@H](C)N1` [Compound 95, 1-{6-Bromo-2-[4-(cis-3,5-dimethyl-piperazin-1-yl)-phenylamino]-pyrido[2,3-d]pyrimidin-7-yl}-3-cyclohexyl-urea], the pIC50 at cdk4/cyclinD was 6.51; on cdk2/cyclinE, < 5.30.
Take `CC(C)NC(=O)Nc1ccc2cnc(Nc3ccc(N4CCNCC4)cc3)nc2n1` [Compound 48, 1-Isopropyl-3-[2-(4-piperazin-1-yl-phenylamino)-pyrido[2,3-d]pyrimidin-7-yl]-urea]: the pIC50 at cdk1/cyclinB was 6.59; on cdk2/cyclinA, 6.95; on cdk4/cyclinD, 7.74; at cdk2/cyclinE, 7.01.
In the same order, the values of `CCN(C(=O)NC1CCCCC1)c1ccc2cnc(Nc3ccc(N4CCNCC4)cc3)nc2n1` [Compound 107, 3-Cyclohexyl-1-ethyl-1-[2-(4-piperazin-1-yl-phenylamino)-pyrido[2,3-d]pyrimidin-7-yl]-urea] are 5.76, 5.71, 7.72 and 5.78.
In the same order, the values of `CC(C)(C)NC(=O)Nc1nc2nc(Nc3ccc(N4CCNCC4)cc3)ncc2cc1Br` [Compound 91, 1-[6-Bromo-2-(4-piperazin-1-yl-phenylamino)-pyrido[2,3-d]pyrimidin-7-yl]-3-tert-butyl-urea] are < 5.30, < 5.30, 7.15 and < 5.30.
With `Cc1cc2cnc(Nc3ccc(N4CCNCC4)cc3)nc2nc1NC(=O)NC(C)(C)C` [Compound 118], the pIC50 was < 5.30 on cdk1/cyclinB, < 5.30 at cdk2/cyclinA, 7.10 on cdk4/cyclinD and 5.42 at cdk2/cyclinE.
On to `Cc1cc2cnc(Nc3ccc(N4C[C@@H](C)N[C@@H](C)C4)cc3)nc2nc1NC(=O)NC1CC1` [Compound 120, 1-Cyclopropyl-3-{2-[4-(cis-3,5-dimethyl-piperazin-1-yl)-phenylamino]-6-methyl-pyrido[2,3-d]pyrimidin-7-yl}-urea], for which the pIC50 on cdk1/cyclinB is < 5.30; on cdk2/cyclinA, < 5.30; on cdk4/cyclinD, 5.72; at cdk2/cyclinE, < 5.30.
For `C[C@@H]1CN(c2ccc(Nc3ncc4cc(F)c(NC(=O)NC(C)(C)C)nc4n3)cc2)C[C@H](C)N1` [Compound 102, 1-tert-Butyl-3-{2-[4(cis-3,5-dimethyl-piperazin-1-yl)-phenylamino]-6-fluoro-pyrido[2,3-d]pyrimidin-7-yl}-urea], the pIC50 is 5.50 at cdk1/cyclinB, 5.44 on cdk2/cyclinA, 6.78 at cdk4/cyclinD and 5.35 on cdk2/cyclinE.
In the same order, the values of `Cc1cc2cnc(Nc3ccc(N4C[C@@H](C)N[C@@H](C)C4)cc3)nc2nc1NC(=O)NC(C)C` [Compound 119, 1-{2-[4-(cis-3,5-Dimethyl-piperazin-1-yl)-phenylamino]-6-methyl-pyrido[2,3-d]pyrimidin-7-yl}-3-isopropyl-urea] are < 5.30, < 5.30, 5.80 and < 5.30.
In the same order, the values of `CC1(C)CN(c2ccc(Nc3ncc4cc(F)c(NC(=O)NC5CCCCC5)nc4n3)cc2)CCN1` [Compound 100, 1-Cyclohexyl-3-{2-[4-(3,3-dimethyl-piperazin-1-yl)-phenylamino]-6-fluoro-pyrido[2,3-d]pyrimidin-7-yl}-urea] are 6.58, 6.82, 7.46 and 6.38.

One may read the melting point as the temperature of the solid-liquid transition.
